Data from US8865911B2, “Compounds and their use as BACE inhibitors” (Astrazeneca AB, priority 2010, dated 2014).

target: human β-Secretase (Homo sapiens (Human), UniProt P56817); experiment: TR-FRET assay; assay type: biochemical; conditions: sBACE-Fc, substrate (Europium)CEVNLDAEFK(Qsy7) 100 nM, pH4.5, 15 minutes at r.t.
Experimental: The β-secretase enzyme used in the TR-FRET is prepared as follows: The cDNA for the soluble part of the human β-Secretase (AA 1-AA 460) was cloned using the ASP2-Fc10-1-IRES-GFP-neoK mammalian expression vector. The gene was fused to the Fc domain of IgG1 (affinity tag) and stably cloned into HEK 293 cells.
The robotic systems Biomek FX and Velocity 11 were used for all liquid handling and the enzyme and substrate solutions were kept on ice until they were placed in the robotic system. Enzyme (9 μl) was added to the plate then 1 μl of compound in dimethylsulphoxide was added, mixed and pre-incubated for 10 minutes. Substrate (10 μl) was then added, mixed and the reaction proceeded for 15 minutes at r.t. The reaction was stopped with the addition of Stop solution (7 μl, NaAcetate, pH 9). […] The dimethylsulphoxide control, instead of test compound, defined the 100% activity level and 0% activity was defined by wells lacking enzyme (replaced with reaction buffer).

Sequence of human β-Secretase (P56817 22-460): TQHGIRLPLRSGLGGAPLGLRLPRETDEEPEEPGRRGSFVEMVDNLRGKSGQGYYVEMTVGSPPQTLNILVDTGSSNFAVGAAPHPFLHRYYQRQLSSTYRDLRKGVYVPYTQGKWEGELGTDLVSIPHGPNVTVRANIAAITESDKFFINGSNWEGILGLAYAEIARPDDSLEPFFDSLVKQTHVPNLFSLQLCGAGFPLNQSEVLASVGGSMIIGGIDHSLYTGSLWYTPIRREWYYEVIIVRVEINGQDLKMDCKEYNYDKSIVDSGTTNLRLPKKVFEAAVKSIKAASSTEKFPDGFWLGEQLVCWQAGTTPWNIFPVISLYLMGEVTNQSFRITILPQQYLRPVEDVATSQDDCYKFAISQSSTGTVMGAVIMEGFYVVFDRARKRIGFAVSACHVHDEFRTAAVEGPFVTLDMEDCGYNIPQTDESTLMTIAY

CC1=NC2(N=C1N)c1cc(C#CC(C)(C)C)ccc1CC21CCC1 (stereo not drawn) [Example 59, 6′-(3,3-Dimethylbut-1-yn-1-yl)-5″-methyl-3′H-dispiro[cyclobutane-1,2′-indene-1′,2″-imidazol]-4″-amine] and CC1=NC2(N=C1N)c1cc(Br)ccc1CC21CCC(C(F)F)CC1 (stereo not drawn) [Example 128, 6′-Bromo-4-(difluoromethyl)-5″-methyl-3′H-dispiro[cyclohexane-1,2′-indene-1′,2″-imidazol]-4″-amine] are the same in IC50: 2610 nM for the first, 2610 nM for the second.

First: CC#Cc1cncc(-c2ccc3c(c2)C2(N=C(C)C(N)=N2)[C@]2(CC[C@](C)(OC)CC2)C3)c1 (stereo partly drawn) [Example 111, (1r,4r)-4-Methoxy-4,5″-dimethyl-6′-[5-(prop-1-yn-1-yl)pyridin-3-yl]-3′H-dispiro[cyclohexane-1,2′-indene-1′,2″-imidazol]-4″-amine]
Second: CC#Cc1cncc(-c2ccc3c(c2)C2(N=C(C)C(N)=N2)[C@]2(CC[C@H](OCC)CC2)C3)c1 (stereo partly drawn) [Example 135, (1r,4r)-4-Ethoxy-5″-methyl-6′-[5-(prop-1-yn-1-yl)pyridin-3-yl]-3′H-dispiro[cyclohexane-1,2′-indene-1′,2″-imidazol]-4″-amine]
The IC50 of the first is 2.3-fold higher: 51 nM for the first, 22 nM for the second. The second is the more potent here.

CO[C@H]1CC[C@]2(CC1)Cc1ccc(-c3cccc(F)c3F)cc1[C@@]21N=C(C)C(N)=N1 [Example 101] and COCc1cc(F)cc(-c2ccc3c(c2)C2(N=C(C)C(N)=N2)[C@]2(CC[C@H](OC)CC2)C3)c1 (stereo partly drawn) [Example 81, (1r,4r)-6′-[3-Fluoro-5-(methoxymethyl)phenyl]-4-methoxy-5″-methyl-3′H-dispiro[cyclohexane-1,2′-indene-1′,2″-imidazol]-4″-amine] are within 1.5-fold of each other in IC50: 19.8 nM for the first, 23 nM for the second.

Compared with CC1=NC2(CC(C3CCCOC3)Oc3ccc(Br)cc32)N=C1N (single isomer, unassigned) [Example 47 Isomer 2, 6-Bromo-5′-methyl-2-(tetrahydro-2H-pyran-3-yl)spiro[chromane-4,2′-imidazole]-4′-amine], CC1=NC2(CC(C3CCOC(C)(C)C3)Oc3ccc(Br)cc32)N=C1N (mixture of isomers) [Example 49 Isomeric mixture 1, 6-Bromo-2-(2,2-dimethyltetrahydro-2H-pyran-4-yl)-5′-methyl-spiro[chromane-4,2′-imidazole]-4′-amine] is 100-fold lower in IC50: 1030 nM for the first, 10 nM for the second.

First: CC1=NC2(CC(C3CCCOC3)Oc3ccc(Br)cc32)N=C1N (single isomer, unassigned) [Example 47 Isomer 4, 6-Bromo-5′-methyl-2-(tetrahydro-2H-pyran-3-yl)spiro[chromane-4,2′-imidazole]-4′-amine]
Second: CC1=NC2(CC(C3CCOC(C)(C)C3)Oc3ccc(-c4cccc(Cl)c4)cc32)N=C1N (racemic) [Example 50 Isomeric mixture 1, 6-(3-Chlorophenyl)-2-(2,2-dimethyltetrahydro-2H-pyran-4-yl)-5′-methylspiro[chroman-4,2′-imidazol]-4′-amine]
The IC50 of the first is 650-fold higher: 65300 nM for the first, 100 nM for the second.

First: COc1ccc(C)cc1-c1ccc2c(c1)C1(CCO2)N=C(C)C(N)=N1 (stereo not drawn) [Example 10, 6-(2-Methoxy-5-methylphenyl)-5′-methylspiro[chroman-4,2′-imidazol]-4′-amine]
Second: COc1ccc(OC)c(-c2ccc3c(c2)C2(CCO3)N=C(C)C(N)=N2)c1 (stereo not drawn) [Example 5, 6-(2,5-Dimethoxyphenyl)-5′-methylspiro[chroman-4,2′-imidazol]-4′-amine]
The IC50 of the first is 1.9-fold higher: 6850 nM for the first, 3640 nM for the second.

Going from CC1=NC2(CCOc3ccc(-c4cc(Cl)cc(Cl)c4)cc32)N=C1N (stereo not drawn) [Example 1, 6-(3,5-Dichlorophenyl)-5′-methylspiro[chroman-4,2′-imidazol]-4′-amine] to CC1=NC2(CCOc3ccc(-c4cc(C)ccc4F)cc32)N=C1N (stereo not drawn) [Example 11, 6-(2-Fluoro-5-methylphenyl)-5′-methylspiro[chroman-4,2′-imidazol]-4′-amine], the IC50 rises from 157 nM to 1980 nM (13-fold).

CC1=NC2(CC(C3CCCOC3)Oc3ccc(Br)cc32)N=C1N (single isomer, unassigned) [Example 47 Isomer 8, 6-Bromo-5′-methyl-2-(tetrahydro-2H-pyran-3-yl)spiro[chromane-4,2′-imidazole]-4′-amine] and CC1=NC2(CCOc3ccc(NC(=O)c4ccc(C)s4)cc32)N=C1N (stereo not drawn) [Example 13f, N-(4′-Amino-5′-methylspiro[chroman-4,2′-imidazole]-6-yl)-5-methylthiophene-2-carboxamide] are within 1.5-fold of each other in IC50: 8100 nM for the first, 6460 nM for the second.

CC1=NC2(N=C1N)c1cc(-c3cccc(Cl)c3)ccc1CC21CCOCC1 (stereo not drawn) [Example 26a, 6′-(3-Chlorophenyl)-5-methyl-2″,3″,5″,6″-tetrahydro-3′H-dispiro[imidazole-2,1′-indene-2′,4″-pyran]-4-amine] and CC1=NC2(N=C1N)c1cc(-c3ccc(F)c(Cl)c3)ccc1CC21CCOCC1 (stereo not drawn) [Example 26c, 6′-(3-Chloro-4-fluorophenyl)-5-methyl-2″,3″,5″,6″-tetrahydro-3′H-dispiro[imidazole-2,1′-indene-2′,4″-pyran]-4-amine] are within 1.5-fold of each other in IC50: 100 nM for the first, 145 nM for the second.

Compared with CC1=NC2(CCOc3ccc(NC(=O)c4ccc(Cl)cn4)cc32)N=C1N (stereo not drawn) [Example 13a, N-(4′-Amino-5′-methylspiro[chroman-4,2′-imidazole]-6-yl)-5-chloropicolinamide], CC1=NC2(CCOc3ccc(NC(=O)c4ncc(Cl)cc4Cl)cc32)N=C1N (stereo not drawn) [Example 13i, N-(4′-Amino-5′-methylspiro[chroman-4,2′-imidazole]-6-yl)-3,5-dichloropicolinamide] is 2.3-fold lower in IC50: 1300 nM for the first, 560 nM for the second.

CCO[C@H]1CC[C@]2(CC1)Cc1ccc(-c3cncc(Cl)c3)cc1C21N=C(C)C(N)=N1 (stereo partly drawn) [Example 133, (1r,4r)-6′-(5-chloropyridin-3-yl)-4-ethoxy-5″-methyl-3′H-dispiro[cyclohexane-1,2′-indene-1′,2″-imidazol]-4″-amine] and CCO[C@H]1CC[C@]2(CC1)Cc1ccc(-c3cc(C#N)cc(C(F)F)c3)cc1C21N=C(C)C(N)=N1 (stereo partly drawn) [Example 134, 3-[(1r,4r)-4″-Amino-4-ethoxy-5″-methyl-3′H-dispiro[cyclohexane-1,2′-indene-1′,2″-imidazol]-6′-yl]-5-(difluoromethyl)benzonitrile] are within 1.5-fold of each other in IC50: 25 nM for the first, 28 nM for the second.

Compared with CC1=NC2(N=C1N)c1cc(NC(=O)c3ccc(Cl)cn3)ccc1CC21CCC(F)(F)CC1 (stereo not drawn) [Example 28d, N-(4″-Amino-4,4-difluoro-5″-methyl-3′H-dispiro[cyclohexane-1,2′-indene-1′,2″-imidazol]-6′-yl)-5-chloropyridine-2-carboxamide], CC#CCOc1ccc(C(=O)Nc2ccc3c(c2)C2(CCO3)N=C(C)C(N)=N2)nc1 (stereo not drawn) [Example 13d, N-(4′-amino-5′-methylspiro[chroman-4,2′-imidazole]-6-yl)-5-(but-2-ynyloxy)picolinamide] is 3.6-fold lower in IC50: 408 nM for the first, 112 nM for the second.

Going from CC1=NC2(CC(C3CCCOC3)Oc3ccc(Br)cc32)N=C1N (single isomer, unassigned) [Example 47 Isomer 6, 6-Bromo-5′-methyl-2-(tetrahydro-2H-pyran-3-yl)spiro[chromane-4,2′-imidazole]-4′-amine] to CCC1=NC2(N=C1N)c1cc(Br)ccc1C[C@]21CC[C@@H](OC)CC1 (stereo partly drawn) [Example 64, (1r,4r)-6′-Bromo-5″-ethyl-4-methoxy-3′H-dispiro[cyclohexane-1,2′-indene-1′,2″-imidazol]-4″-amine], the IC50 falls from 1380 nM to 401 nM (3.4-fold). The second is the more potent here.

First: CC1=NC2(N=C1N)c1cc(-c3cc(F)cc(C#N)c3)ccc1CC21CCC(=O)CC1 (stereo not drawn) [Example 115, 3-(4″-Amino-5″-methyl-4-oxodispiro[cyclohexane-1,2′-[1H]indene-1′(3′H),2″-[2H]imidazol]-6′-yl)-5-fluorobenzonitrile]
Second: CC1=N[C@]2(N=C1N)c1cc(-c3cc(F)cc(C#N)c3)ccc1C[C@]21CC[C@@H](OC(F)F)CC1 (racemic) [Example 105, 3-[(1r,4r)-4″-Amino-4-(difluoromethoxy)-5″-methyl-3′H-dispiro[cyclohexane-1,2′-indene-1′,2″-imidazol]-6′-yl]-5-fluorobenzonitrile]
The IC50 of the first is 29-fold higher: 632 nM for the first, 22 nM for the second. The second is the more potent here.

CC1=NC2(CC(C3CCCOC3)Oc3ccc(Br)cc32)N=C1N (single isomer, unassigned) [Example 47 Isomer 5, 6-Bromo-5′-methyl-2-(tetrahydro-2H-pyran-3-yl)spiro[chromane-4,2′-imidazole]-4′-amine] gave an IC50 of 19800 nM.

CC1=NC2(CC(C3CCCOC3)Oc3ccc(Br)cc32)N=C1N (single isomer, unassigned) [Example 47 Isomer 1, 6-Bromo-5′-methyl-2-(tetrahydro-2H-pyran-3-yl)spiro[chromane-4,2′-imidazole]-4′-amine] was tested, and the “IC50 in TR-FRET assay” value was “inactive”.
In the case of CC1=NC2(CC(C3CCOC(C)(C)C3)Oc3ccc(Br)cc32)N=C1N (mixture of isomers) [Example 49 Isomeric mixture 2, 6-Bromo-2-(2,2-dimethyltetrahydro-2H-pyran-4-yl)-5′-methyl-spiro[chromane-4,2′-imidazole]-4′-amine], the “IC50 in TR-FRET assay” value is reported as “inactive”.
For CC1=NC2(CC(C3CCCOC3)Oc3ccc(Br)cc32)N=C1N (single isomer, unassigned) [Example 47 Isomer 7, 6-Bromo-5′-methyl-2-(tetrahydro-2H-pyran-3-yl)spiro[chromane-4,2′-imidazole]-4′-amine], the “IC50 in TR-FRET assay” value was “inactive”.
CC1=NC2(CC(C3CCCOC3)Oc3ccc(Br)cc32)N=C1N (single isomer, unassigned) [Example 47 Isomer 3, 6-Bromo-5′-methyl-2-(tetrahydro-2H-pyran-3-yl)spiro[chromane-4,2′-imidazole]-4′-amine] was tested, and the “IC50 in TR-FRET assay” value was “inactive”.
